In paper PMC12064818, “A general assay platform to study protein pharmacology using ligand-dependent structural dynamics” (Nature Communications, 2025):
Like-named read-outs stand apart in the source and are kept apart here.

Molecular target: T1, NLuc (Oplophorus gracilirostris, UniProt Q9GV45, A31E/A60N/A81I/F95D/I117V/K70R/L54V/L99Q/M102K/N193R/P142E/Q151K/Q38R/Q45L/V71I/Y165I)
T1 construct: His tag (inferred from IMAC purification); made in house; host or cells: E. coli
Type: biochemical
Settings: for Standard assay statistics Ave RLU / Standard assay statistics S:B / Standard assay statistics S:N / Standard assay statistics Z’ / SDR assay statistics Ave RLU / SDR assay statistics S:B / SDR assay statistics S:N / SDR assay statistics Z’: 32.8 µM ligand; for SDR assay statistics Ave RLU / SDR assay statistics S:B / SDR assay statistics S:N / SDR assay statistics Z’: Standard functional and SDR assays are the same
Outline: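 Luminescence was read 10 min after Nano-Glo reagent addition. Enzyme was 1 nM NLuc in PBS/0.05% IGEPAL buffer, with or without ATP.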

T1 sequence (Q9GV45 other isoform, or with tags, fused parts or gaps with the stated changes): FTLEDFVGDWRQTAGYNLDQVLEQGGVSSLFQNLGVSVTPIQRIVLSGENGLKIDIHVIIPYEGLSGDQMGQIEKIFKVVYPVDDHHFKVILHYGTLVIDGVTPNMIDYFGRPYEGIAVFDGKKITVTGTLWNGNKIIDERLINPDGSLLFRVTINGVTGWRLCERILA

| Structure (SMILES) | Standard assay statistics Ave RLU (NLuc (1 nM) + 10 mM ATP) [RLU] | Standard assay statistics S:B (NLuc (1 nM) + 10 mM ATP) | Standard assay statistics S:N (NLuc (1 nM) + 10 mM ATP) | Standard assay statistics Z’ (NLuc (1 nM) + 10 mM ATP) | SDR assay statistics Ave RLU (NLuc (1 nM) + 10 mM ATP) [RLU] | SDR assay statistics S:B (NLuc (1 nM) + 10 mM ATP) | SDR assay statistics S:N (NLuc (1 nM) + 10 mM ATP) | SDR assay statistics Z’ (NLuc (1 nM) + 10 mM ATP) | Standard assay statistics Ave RLU (NLuc (1 nM) No ATP) [RLU] | Standard assay statistics S:B (NLuc (1 nM) No ATP) | Standard assay statistics S:N (NLuc (1 nM) No ATP) | Standard assay statistics Z’ (NLuc (1 nM) No ATP) | SDR assay statistics Ave RLU (NLuc (1 nM) No ATP) [RLU] | SDR assay statistics S:B (NLuc (1 nM) No ATP) | SDR assay statistics S:N (NLuc (1 nM) No ATP) | SDR assay statistics Z’ (NLuc (1 nM) No ATP) | effect on NLuc activity (in words) (±ATP) |
| --- | --- | --- | --- | --- | --- | --- | --- | --- | --- | --- | --- | --- | --- | --- | --- | --- | --- |
| O=C(O)c1cccc(-c2noc(-c3ccccc3F)n2)c1 [PTC124, reference compound] | 17397.2 | 1.0 | 0.0 | -163.485 | 17397.2 | 1.0 | 0.0 | -163.485 | 20065.5 | 1.0 | 0.0 | -167.215 | 20065.5 | 1.0 | 0.0 | -167.215 | – |
| Nc1ncnc2c1ncn2[C@@H]1O[C@H](COP(=O)(O)OP(=O)(O)OP(=O)(O)O)[C@@H](O)[C@H]1O [ATP] | – | – | – | – | – | – | – | – | – | – | – | – | – | – | – | – | no effect on NLuc activity |
